# Laboratory results: publication PMC4039129, “Specificity and Promiscuity at the Branch Point in Gentamicin Biosynthesis” (Chemistry & Biology, 2014)
# Columns and labels:
# [1] = biological target: T1, GenQ (VM_GenQ) (Micromonospora echinospora, UniProt Q70KE0); experiment: LC-ESI-MS, […]'-dehydrogenation; type: biochemical; conditions: 200 uM substrate, 16 uM enzyme, Tris-HCl pH 8.0, 30 °C overnight
# T1 construct: gene gacJ; full length with 38 extra N-terminal residues absent in original annotation; N-His6 tag, pET28a(+), E. coli BL21(DE3); contains FAD
# [2] = biological target: T2, GenB1 (Micromonospora echinospora, UniProt Q70KD9); experiment: LC-ESI-MS, GenQ-coupled transamination; type: biochemical; conditions: amino donor 2 mM; 6'-DOG made in situ from 200 uM G418 by 16 uM GenQ; 20 uM GenB1; Tris-HCl pH 8.0, 30 °C
# T2 construct: gene gacK; N-His6-tagged, pET28a(+), E. coli BL21(DE3); contains PLP
# [3] = biological target: T3, GenB2 (Micromonospora echinospora, UniProt Q70KE6); experiment: LC-ESI-MS, […]'-epimerization; type: biochemical; conditions: 200 uM substrate, 20 uM enzyme, Tris-HCl pH 8.0, 30 °C overnight; reversible
# T3 construct: gene gacE; N-His6-tagged, pET28a(+), E. coli BL21(DE3); contains PLP
# [4] = biological target: T4, GenB4 (Micromonospora echinospora, UniProt Q6QVT7); experiment: UV-visible absorption spectrum; type: binding; conditions: co-purified cofactor
# T4 construct: gene gntH; N-His6-tagged, pET28a(+), E. coli BL21(DE3); contains PLP
# [5] = biological target: T5, GenB3 (Micromonospora echinospora, UniProt Q2MG50); experiment: UV-visible absorption spectrum; type: binding; conditions: co-purified cofactor
# T5 construct: N-His6-tagged, pET28a(+), E. coli BL21(DE3); contains PLP
# [6] = biological target: T3, GenB2; experiment: UV-visible absorption spectrum; type: binding; conditions: co-purified cofactor
# [7] = biological target: T2, GenB1; experiment: UV-visible absorption spectrum; type: binding; conditions: co-purified cofactor
# T3 sequence (Q70KE6 entry or part of it): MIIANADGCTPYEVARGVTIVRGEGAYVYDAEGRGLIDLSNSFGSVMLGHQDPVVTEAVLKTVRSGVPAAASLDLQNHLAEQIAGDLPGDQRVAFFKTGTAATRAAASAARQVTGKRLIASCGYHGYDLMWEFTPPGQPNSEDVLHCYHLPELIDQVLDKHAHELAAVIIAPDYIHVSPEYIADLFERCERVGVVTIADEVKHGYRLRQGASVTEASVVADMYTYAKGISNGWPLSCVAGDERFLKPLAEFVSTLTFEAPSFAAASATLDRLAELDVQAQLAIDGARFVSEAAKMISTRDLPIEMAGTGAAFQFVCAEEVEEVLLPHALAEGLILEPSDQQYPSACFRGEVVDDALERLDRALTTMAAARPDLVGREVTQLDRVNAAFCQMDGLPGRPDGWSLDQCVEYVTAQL
# T2 sequence (Q70KD9 entry or part of it): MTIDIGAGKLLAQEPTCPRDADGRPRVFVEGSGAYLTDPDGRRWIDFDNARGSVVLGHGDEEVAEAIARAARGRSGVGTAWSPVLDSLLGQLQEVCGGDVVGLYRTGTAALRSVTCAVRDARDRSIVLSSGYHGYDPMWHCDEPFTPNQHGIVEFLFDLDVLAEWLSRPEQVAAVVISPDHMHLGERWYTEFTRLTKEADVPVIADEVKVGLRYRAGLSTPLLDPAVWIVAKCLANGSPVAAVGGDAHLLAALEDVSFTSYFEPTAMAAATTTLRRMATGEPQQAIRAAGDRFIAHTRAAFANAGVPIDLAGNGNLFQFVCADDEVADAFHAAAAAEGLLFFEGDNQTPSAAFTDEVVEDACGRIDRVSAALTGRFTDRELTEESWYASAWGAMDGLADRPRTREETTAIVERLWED
# T4 sequence (Q6QVT7 entry or part of it): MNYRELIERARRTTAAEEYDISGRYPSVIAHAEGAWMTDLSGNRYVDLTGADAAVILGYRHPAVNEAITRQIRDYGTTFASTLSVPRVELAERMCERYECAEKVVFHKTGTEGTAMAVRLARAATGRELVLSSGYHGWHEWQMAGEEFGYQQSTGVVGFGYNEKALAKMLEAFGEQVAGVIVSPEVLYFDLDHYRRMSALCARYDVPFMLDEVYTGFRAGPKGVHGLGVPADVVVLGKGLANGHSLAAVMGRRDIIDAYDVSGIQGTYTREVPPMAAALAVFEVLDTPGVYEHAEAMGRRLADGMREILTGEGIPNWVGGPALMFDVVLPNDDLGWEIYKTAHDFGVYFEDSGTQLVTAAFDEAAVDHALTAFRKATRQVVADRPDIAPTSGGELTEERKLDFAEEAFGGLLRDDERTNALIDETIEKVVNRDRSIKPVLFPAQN
# T1 sequence (Q70KE0 entry or part of it): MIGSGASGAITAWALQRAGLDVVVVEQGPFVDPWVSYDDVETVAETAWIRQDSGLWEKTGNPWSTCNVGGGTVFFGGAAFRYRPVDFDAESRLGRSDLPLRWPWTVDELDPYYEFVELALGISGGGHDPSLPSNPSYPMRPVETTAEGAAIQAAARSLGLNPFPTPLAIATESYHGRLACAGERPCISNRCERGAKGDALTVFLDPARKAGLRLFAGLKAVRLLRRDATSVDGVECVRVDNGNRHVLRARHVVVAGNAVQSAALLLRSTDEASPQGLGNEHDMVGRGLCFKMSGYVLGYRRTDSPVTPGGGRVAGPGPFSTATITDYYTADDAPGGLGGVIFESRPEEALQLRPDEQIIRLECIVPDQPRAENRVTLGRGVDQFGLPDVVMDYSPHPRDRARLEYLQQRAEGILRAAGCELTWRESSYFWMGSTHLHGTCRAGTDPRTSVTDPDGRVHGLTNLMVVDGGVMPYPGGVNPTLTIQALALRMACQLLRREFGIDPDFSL
# T5 sequence (Q2MG50 entry or part of it): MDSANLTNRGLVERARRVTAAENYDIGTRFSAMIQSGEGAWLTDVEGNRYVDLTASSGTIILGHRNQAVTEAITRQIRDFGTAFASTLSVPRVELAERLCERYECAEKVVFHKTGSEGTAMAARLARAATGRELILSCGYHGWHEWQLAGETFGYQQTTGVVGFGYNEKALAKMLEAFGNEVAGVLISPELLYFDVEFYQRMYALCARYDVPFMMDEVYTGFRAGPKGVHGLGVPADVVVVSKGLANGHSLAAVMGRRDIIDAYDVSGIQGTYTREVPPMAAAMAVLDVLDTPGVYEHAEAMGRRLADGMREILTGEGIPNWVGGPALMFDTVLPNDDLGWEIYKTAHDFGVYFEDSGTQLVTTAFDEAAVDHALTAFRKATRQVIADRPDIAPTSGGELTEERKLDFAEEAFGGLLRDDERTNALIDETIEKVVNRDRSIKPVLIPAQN
compound,measurement,setting,value
CN[C@@H]1[C@@H](O)[C@@H](O[C@@H]2[C@@H](O)[C@H](O[C@H]3O[C@H](CO)[C@@H](O)[C@H](O)[C@H]3N)[C@@H](N)C[C@H]2N)OC[C@]1(C)O (stereo in doubt) [gentamicin X2],"LC-ESI-MS, 6'-dehydrogenation",[1],GenQ also showed activity with X2 as the substrate
CSCC[C@H](N)C(=O)O [L-methionine],"LC-ESI-MS, GenQ-coupled transamination",[2],"conversion of G418 to JI-20B, with L-methionine as the most effective amino donor"
CN[C@@H]1[C@@H](O)[C@@H](O[C@@H]2[C@@H](O)[C@H](O[C@H]3O[C@H]([C@@H](C)N)CC[C@H]3N)[C@@H](N)C[C@H]2N)OC[C@]1(C)O [gentamicin C2],"LC-ESI-MS, 6'-epimerization",[3],GenB2 did catalyze the epimerization of C2
CN[C@@H]1[C@@H](O)[C@@H](O[C@@H]2[C@@H](O)[C@H](O[C@H]3O[C@H]([C@H](C)N)CC[C@H]3N)[C@@H](N)C[C@H]2N)OC[C@]1(C)O [gentamicin C2a],"LC-ESI-MS, 6'-epimerization",[3],when C2a was used as the substrate the reverse reaction was also detected
Cc1ncc(COP(=O)(O)O)c(C=O)c1O [pyridoxal-5′-phosphate],UV-visible absorption spectrum,[4],UV-visible absorption spectra typical of aminotransferases containing bound pyridoxal-5′-phosphate cofactor
same,UV-visible absorption spectrum,[5],UV-visible absorption spectra typical of aminotransferases containing bound pyridoxal-5′-phosphate cofactor
same,UV-visible absorption spectrum,[6],UV-visible absorption spectra typical of aminotransferases containing bound pyridoxal-5′-phosphate cofactor
same,UV-visible absorption spectrum,[7],UV-visible absorption spectra typical of aminotransferases containing bound pyridoxal-5′-phosphate cofactor
